Where two headings read alike, the source gives them in different places.
What was measured:
[1] = molecular target: T1, SF3b complexes (Homo sapiens, UniProt O75533+Q7RTV0); experiment: Scintillation proximity assay (SPA) with [3H]-labelled pladienolide probe; assay type: binding; settings: SF3B1 (WT); geometric mean; read-out: SPA-ATS GMean IC50 (nM) SF3B1 (WT)
T1 construct: endogenous in cells; host or cells: Nuclear extracts; A HeLa S3 extract preparation is described for the in vitro splicing assay
Outline: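 SF3b complexes captured from nuclear extracts on anti-SF3B1 antibody SPA beads; test compounds pre-incubated 30 min before 2.5 nM [3H]-pladienolide probe added, then 30 min incubation. Bound probe read by scintillation; values from non-linear regression of concentration–response curves.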

[2] = test system: NCI-H1568 cells (high MCL1); experiment: Cell proliferation and viability, CellTiter-Glo, 72 hours; assay type: cell-based; settings: for GI50: geometric mean
Outline: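 Cells grown in RPMI-1640 with 10% FBS (Panc line with added insulin and FBS to 15%) were exposed to an 11-point half-log dilution series, typically 10 μM-100 pM, at 0.1% final DMSO. After incubation at 37° C, 5% CO2, ATP content was measured by luminescence and normalized to a time-zero plate and DMSO wells.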

[3] = test system: Ad2 variant pre-mRNAs spliced in HeLa S3 nuclear extracts; experiment: In vitro splicing assay (IVS), RT-qPCR of spliced product; assay type: biochemical; settings: for IC50: geometric mean; for Ratio Ad2.1/2.2: ratio of IVS IC50 Ad2.1 to Ad2.2
Outline: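 Ad2 variant pre-mRNA (2 ng) with FTZΔi control RNA in HeLa S3 nuclear extract (8 μg) was pre-incubated with compound or DMSO for 15 min at 30 °C. Splicing ran 90 min at 30 °C after adding 0.5 mM ATP, creatine phosphate and MgCl2. Spliced product was quantified by TaqMan RT-qPCR, normalized to DMSO, and curve-fitted.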

[4] = NCI-H1568, read-out: CTGlo-ATS GMean GI50 (nM) 72 h NCIH1568.1, NCIH1568.1 cells, 72 h
[5] = NCIH1568.1 cells, 72 h, −100% cidal, 0% static, 100% maximal growth
[6] = Ad2.1 pre-mRNA substrate, read-out: qPCR-IVS-ATS GMean IC50 (nM) Ad2.1
[7] = Ad2.2 pre-mRNA substrate, read-out: qPCR-IVS-ATS GMean IC50 (nM) Ad2.2
[8] = NCI-H1568, 72 h, read-out: CTGlo-ATS GMean GI50 (nM) 72 h NCIH1568.1, NCIH1568.1 cells, 72 h
[9] = 72 h, NCIH1568.1, -100% = cidal, 0% = static, 100% = uninhibited growth
[10] = NCI-H1568, read-out: CTGlo-ATS GMean GI50 (nM) 72 h NCIH1568.1, 72 h, NCIH1568.1
[11] = NCI-H1568, 72 h, read-out: CTGlo-ATS GMean GI50 (nM) 72 h NCIH1568.1, 72 h, NCIH1568.1

Row | Compound | IC50 [1] | GI50 [2, 4] | CTGlo-ATS Mean MinResponse % 72 h NCIH1568.1 [2, 5] | IC50 [3, 6] | IC50 [3, 7] | GI50 [2, 8] | CTGlo-ATS Mean MinResponse % 72 h NCIH1568.1 [2, 9] | GI50 [2, 10] | Ratio Ad2.1/2.2 [3] | GI50 [2, 11]
1 | C/C(=C\c1cc(F)cc(N(C)C2CCN(S(=O)(=O)c3ccccc3)CC2)c1)[C@H]1OC(=O)C[C@H](O)CC[C@H](C)[C@@H](OC(=O)N2CCN(C)CC2)/C=C/[C@@H]1C [Compound 185] | 186 nM | 114 nM | −99.538% | 543 nM | 46.6 nM | – | – | – | – | –
2 | CC(=O)N1CCC(CN(C)c2cc(F)cc(/C=C(\C)[C@H]3OC(=O)C[C@H](O)CC[C@H](C)[C@@H](OC(=O)N4CCN(C)CC4)/C=C/[C@@H]3C)c2)CC1 [Compound 186] | 12.6 nM | – | −70.969% | 41.8 nM | 17.4 nM | 14.5 nM | – | – | – | –
3 | C/C(=C\c1cc(F)cc(N(C)CC2CCN(S(C)(=O)=O)CC2)c1)[C@H]1OC(=O)C[C@H](O)CC[C@H](C)[C@@H](OC(=O)N2CCN(C)CC2)/C=C/[C@@H]1C [Compound 187] | 43.2 nM | 65 nM | −54.197% | 157 nM | 59.6 nM | – | – | – | – | –
4 | C/C(=C\c1cc(F)cc(N(C)C2CCN(C(=O)c3cnco3)CC2)c1)[C@H]1OC(=O)C[C@H](O)CC[C@H](C)[C@@H](OC(=O)N2CCN(C)CC2)/C=C/[C@@H]1C [Compound 188] | 2.61 nM | 2.77 nM | −79.922% | 7.41 nM | 5.63 nM | – | – | – | – | –
5 | C/C(=C\c1cc(F)cc(N(C)C2CCN(C(=O)c3cnccn3)CC2)c1)[C@H]1OC(=O)C[C@H](O)CC[C@H](C)[C@@H](OC(=O)N2CCN(C)CC2)/C=C/[C@@H]1C [Compound 189] | 6.8 nM | 9.53 nM | −76.052% | 16.9 nM | 10.3 nM | – | – | – | – | –
6 | C/C(=C\c1cc(F)cc(N(C)C2CCN(C(=O)c3cn(C)cn3)CC2)c1)[C@H]1OC(=O)C[C@H](O)CC[C@H](C)[C@@H](OC(=O)N2CCN(C)CC2)/C=C/[C@@H]1C [Compound 190] | 6.55 nM | 19.8 nM | −69.142% | 33.5 nM | 15.7 nM | – | – | – | – | –
7 | C/C(=C\c1cc(F)cc(N(C)C2CCN(C(=O)NC(C)C)CC2)c1)[C@H]1OC(=O)C[C@H](O)CC[C@H](C)[C@@H](OC(=O)N2CCN(C)CC2)/C=C/[C@@H]1C [Compound 191] | 3.47 nM | 6.33 nM | −83.895% | 11.6 nM | 7.47 nM | – | – | – | – | –
8 | CCCNC(=O)N1CCC(N(C)c2cc(F)cc(/C=C(\C)[C@H]3OC(=O)C[C@H](O)CC[C@H](C)[C@@H](OC(=O)N4CCN(C)CC4)/C=C/[C@@H]3C)c2)CC1 [Compound 192] | 3.85 nM | – | −75.900% | 14.1 nM | 10.3 nM | 7.49 nM | – | – | – | –
9 | C/C(=C\c1cc(F)cc(N(C)C2CCN(C(=O)Nc3ccccc3)CC2)c1)[C@H]1OC(=O)C[C@H](O)CC[C@H](C)[C@@H](OC(=O)N2CCN(C)CC2)/C=C/[C@@H]1C [Compound 193] | 127 nM | 17.2 nM | −89.438% | 47.8 nM | 19.6 nM | – | – | – | – | –
10 | C/C(=C\c1cc(F)cc(OC2CCN(S(C)(=O)=O)CC2)c1)[C@H]1OC(=O)C[C@H](O)CC[C@H](C)[C@@H](OC(=O)N2CCN(C)CC2)/C=C/[C@@H]1C [Compound 194] | 10.7 nM | 6.73 nM | −75.631% | 30.1 nM | 25.9 nM | – | – | – | – | –
11 | C/C(=C\c1cc(F)c2cnn(C3CCC(F)(F)CC3)c2c1)[C@H]1OC(=O)C[C@H](O)CC[C@H](C)[C@@H](OC(=O)N2CCN(C)CC2)/C=C/[C@@H]1C [Compound 195] | 69.3 nM | 6.59 nM | −95.559% | 91.9 nM | 58.3 nM | – | – | – | – | –
12 | C/C(=C\c1cc(F)c2cnn(C3CCN(S(C)(=O)=O)CC3)c2c1)[C@H]1OC(=O)C[C@H](O)CC[C@H](C)[C@@H](OC(=O)N2CCN(C)CC2)/C=C/[C@@H]1C [Compound 196] | 13.2 nM | – | – | 30 nM | 19.6 nM | – | −90.418% | 1.83 nM | 1.529 | –
13 | C/C(=C\c1cc(F)cc(N2CCN(C(=O)Cn3cccn3)CC2)c1)[C@H]1OC(=O)C[C@H](O)CC[C@H](C)[C@@H](OC(=O)NCc2ccncc2)/C=C/[C@@H]1C [Compound 221, [(2S,3S,4E,6R,7S,10R)-2-[(E)-1-[3-fluoro-5-[4-(2-pyrazol-1-ylacetyl)piperazin-1-yl]phenyl]prop-1-en-2-yl]-10-hydroxy-3,7-dimethyl-12-oxo-1-oxacyclododec-4-en-6-yl] N-(pyridin-4-ylmethyl)carbamate] | 9.33 nM | – | – | 9.6 nM | 4.86 nM | – | −66.213% | – | 1.973 | 11.4 nM
14 | C/C(=C\c1cc(F)cc(N2CCN(C(=O)Cn3cccn3)CC2)c1)[C@H]1OC(=O)C[C@H](O)CC[C@H](C)[C@@H](OC(=O)NCc2ccncn2)/C=C/[C@@H]1C [Compound 222, [(2S,3S,4E,6R,7S,10R)-2-[(E)-1-[3-fluoro-5-[4-(2-pyrazol-1-ylacetyl)piperazin-1-yl]phenyl]prop-1-en-2-yl]-10-hydroxy-3,7-dimethyl-12-oxo-1-oxacyclododec-4-en-6-yl] N-(pyrimidin-4-ylmethyl)carbamate] | 23.6 nM | – | – | 116 nM | 53.2 nM | – | −58.410% | – | 2.179 | 69.4 nM
15 | C/C(=C\c1cc(F)cc(N2CCN(C(=O)Cn3cccn3)CC2)c1)[C@H]1OC(=O)C[C@H](O)CC[C@H](C)[C@@H](OC(=O)N2CCOCC2)/C=C/[C@@H]1C [Compound 223, [(2S,3S,4E,6R,7S,10R)-2-[(E)-1-[3-fluoro-5-[4-(2-pyrazol-1-ylacetyl)piperazin-1-yl]phenyl]prop-1-en-2-yl]-10-hydroxy-3,7-dimethyl-12-oxo-1-oxacyclododec-4-en-6-yl] morpholine-4-carboxylate] | 15.9 nM | – | – | 93.9 nM | 6.96 nM | – | −62.835% | 33.1 nM | 13.488 | –
16 | C/C(=C\c1cc(F)cc(N2CCN(C(=O)Cn3cccn3)CC2)c1)[C@H]1OC(=O)C[C@H](O)CC[C@H](C)[C@@H](OC(=O)NCCN(C)C)/C=C/[C@@H]1C [Compound 224, [(2S,3S,4E,6R,7S,10R)-2-[(E)-1-[3-fluoro-5-[4-(2-pyrazol-1-ylacetyl)piperazin-1-yl]phenyl]prop-1-en-2-yl]-10-hydroxy-3,7-dimethyl-12-oxo-1-oxacyclododec-4-en-6-yl] N-[2-(dimethylamino)ethyl]carbamate] | 3.14 nM | – | – | 41.1 nM | 5.88 nM | – | −61.875% | – | 6.991 | 16.4 nM

Reference: US11679107B2 (Eisai R&D Management Co., Ltd., priority 2018, dated 2023)
